Earlier results on 4 compounds are cited in US20240398845A1, “USE OF SGLT-2 INHIBITORS FOR THE PREVENTION AND/OR TREATMENT OF CARDIAC DISEASES IN NON-HUMAN MAMMALS EXCLUDING FELINES, IN PARTICULAR CANINES” (BOEHRINGER INGELHEIM VETMEDICA GMBH, priority 2021, published 2024).

Data set [1] has as its system canine atrial fibrillation model. Particulars: cited from earlier work.
Another data set deals with Stage B2 dogs (MMVD). Particulars: cited from earlier work.
The test system of data set [2] is non-diabetic heart failure. Particulars: cited from earlier work.
The subject of data set [3] is adults with heart failure and reduced ejection fraction. To be noted: with and without diabetes; cited from earlier work.
In data set [4] the test system is mitral regurgitation-induced myocardial dysfunction. Particulars: cited from earlier work.

As for `Cc1ccc([C@@H]2O[C@H](CO)[C@@H](O)[C@H](O)[C@H]2O)cc1Cc1ccc(-c2ccc(F)cc2)s1` [canagliflozin, Canagliflozin], in data set [1], the atrial remodeling entry is on record as “suppresses atrial remodeling”. Take `COc1ccc(-c2nc3ccc(C4=NNC(=O)CC4C)cc3[nH]2)cc1` (centres unmarked) [pimobendan]: in the data set with Stage B2 dogs (MMVD), the preclinical period entry was “prolongation of the preclinical period”. For the compound `OC[C@H]1O[C@@H](c2ccc(Cl)c(Cc3ccc(O[C@H]4CCOC4)cc3)c2)[C@H](O)[C@@H](O)[C@@H]1O` [empagliflozin, Empagliflozin], the “adverse left ventricular remodeling” value in data set [2] was “ameliorates adverse left ventricular remodeling”. Also, the “risk for the composite endpoint of cardiovascular death or hospitalization due to heart failure” value in data set [3] is “reduced the risk”. Regarding `CCOc1ccc(Cc2cc([C@@H]3O[C@H](CO)[C@@H](O)[C@H](O)[C@H]3O)ccc2Cl)cc1` [dapagliflozin, Dapagliflozin], in data set [4], the “cardiac hemodynamics and arrhythmogenesis” value is “improves cardiac hemodynamics and mitigates arrhythmogenesis”.
